{"source": "paper PMC6466579", "about": "“Non-Mammalian Prdx6 Enzymes (Proteins with 1-Cys Prdx Mechanism) Display PLA2 Activity Similar to the Human Orthologue” (Antioxidants, 2019)", "key": {"AfPrx1": {"target": "T1, AfPrx1 (Aspergillus fumigatus, UniProt Q4WPA3)", "T1 construct": "gene AFUA_4G08580; cytosolic 1-Cys Prdx", "T1 sequence (Q4WPA3 1-213)": "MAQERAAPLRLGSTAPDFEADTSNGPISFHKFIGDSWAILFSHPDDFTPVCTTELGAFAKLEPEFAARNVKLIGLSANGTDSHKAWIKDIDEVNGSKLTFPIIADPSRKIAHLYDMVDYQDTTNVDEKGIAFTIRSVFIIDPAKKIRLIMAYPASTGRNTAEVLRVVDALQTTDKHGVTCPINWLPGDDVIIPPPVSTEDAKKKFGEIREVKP", "experiment": "PLA2 assay, [3H]DPPC liposomes, TLC and scintillation", "format": "biochemical"}, "AfPrxC": {"target": "T2, AfPrxC (Aspergillus fumigatus, UniProt B0Y9D7)", "T2 construct": "gene AFUB_080670", "T2 sequence (B0Y9D7 47-267)": "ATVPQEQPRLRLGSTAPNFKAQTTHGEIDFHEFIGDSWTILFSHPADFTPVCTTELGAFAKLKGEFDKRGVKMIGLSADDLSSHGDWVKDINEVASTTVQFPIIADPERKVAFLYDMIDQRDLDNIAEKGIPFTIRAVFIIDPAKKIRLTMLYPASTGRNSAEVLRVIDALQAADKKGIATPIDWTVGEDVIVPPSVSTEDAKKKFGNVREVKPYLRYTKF", "experiment": "PLA2 assay, [3H]DPPC liposomes, TLC and scintillation", "format": "biochemical"}}, "data": [{"smiles": "CCCCCCCCCCCCCCCCOC[C@H](COCC(F)(F)F)OP(=O)(O)OC", "note": "[MJ33, 1-hexadecyl-3-trifluoro-ethylglycero-sn-2-phosphomethanol]", "values": [{"measurement": "inhibition at 200 µM", "setting": "AfPrx1", "result": "~85", "unit": "%"}, {"measurement": "inhibition at 200 µM", "setting": "AfPrxC", "result": "~85", "unit": "%"}]}]}
